Assay results taken from US9695180B2 (Incyte Corporation, priority 2014, dated 2017).

Biological target: LSD-1 enzyme (Homo sapiens (Human), UniProt O60341)
Assay: LANCE LSD1/KDM1A demethylase assay (LSD1 histone demethylase biochemical assay)
Experimental: Example A: LSD1 Histone Demethylase Biochemical Assay
LANCE LSD1/KDM1A demethylase assay—10 μL of 1 nM LSD-1 enzyme (ENZO BML-SE544-0050) in the assay buffer (50 mM Tris, pH 7.5, 0.01% Tween-20, 25 mM NaCl, 5 mM DTT) were preincubated for 1 hour at 25° C. with 0.8 μL compound/DMSO dotted in black 384 well polystyrene plates. […] Reactions were stopped by addition of 10 μL 1× LANCE Detection Buffer (PerkinElmer CR97-100) supplemented with 1.5 nM Eu-anti-unmodified H3K4 Antibody (PerkinElmer TRF0404), and 225 nM LANCE Ultra Streptavidin (PerkinElmer TRF102) along with 0.9 mM Tranylcypromine-HCl (Millipore 616431). After stopping the reactions plates were incubated for 30 minutes and read on a PHERAstar FS plate reader (BMG Labtech).

Compound | IC50
CN1CCC[C@@H](COc2nc(-c3ccc(C#N)cc3)c(-c3ccc4c(c3)OCC(=O)N4C)n3ccnc23)C1 [Example 49, 4-(5-(4-methyl-3-oxo-3,4-dihydro-2H-1,4-benzoxazin-7-yl)-8-{[(3R)-1-methylpiperidin-3-yl]methoxy}imidazo[1,2-a]pyrazin-6-yl)benzonitrile] | 50 to 500 nM
Cc1ccc(-c2c(-c3ccc(C#N)cc3)nc(CCN3CC[C@@H](N(C)C)C3)c3nccn23)cc1 [Example 6, 4-[8-{2-[(3R)-3-(dimethylamino)pyrrolidin-1-yl]ethyl}-5-(4-methylphenyl)imidazo[1,2-a]pyrazin-6-yl]benzonitrile] | 500 to 1000 nM
CCN1CCC[C@@H](COc2nc(-c3ccc(C#N)cc3)c(-c3cnc4c(ccn4C)c3)n3ccnc23)C1 [Example 61, 4-[8-{[(3R)-1-ethylpiperidin-3-yl]methoxy}-5-(1-methyl-1H-pyrrolo[2,3-b]pyridin-5-yl)imidazo[1,2-a]pyrazin-6-yl]benzonitrile] | 50 to 500 nM
Cc1ccc(-c2c(-c3ccc(C#N)cc3)nc(NC3CCN(C)CC3)c3nccn23)cc1 [Example 17, 4-{5-(4-methylphenyl)-8-[(1-methylpiperidin-4-yl)amino]imidazo[1,2-a]pyrazin-6-yl}benzonitrile] | 50 to 500 nM
CCN1CCC[C@@H](COc2nc(-c3ccc(C#N)cc3)c(-c3ccc4c(c3)oc(=O)n4C)n3ccnc23)C1 [Example 63, 4-[8-{[(3R)-1-ethylpiperidin-3-yl]methoxy}-5-(3-methyl-2-oxo-2,3-dihydro-1,3-benzoxazol-6-yl)imidazo[1,2-a]pyrazin-6-yl]benzonitrile] | 50 to 500 nM
N#Cc1ccc(-c2nc(OC[C@@H]3CCNC3)c3nccn3c2-c2ccc(Cl)cc2)cc1 [Example 27, 4-{5-(4-chlorophenyl)-8-[(3R)-pyrrolidin-3-ylmethoxy]imidazo[1,2-a]pyrazin-6-yl}benzonitrile] | 50 to 500 nM
Cc1ccc(-c2c(-c3ccc(C#N)cc3)nc(C(=O)NCC3CNC3)c3nccn23)cc1 [Example 24, N-(azetidin-3-ylmethyl)-6-(4-cyanophenyl)-5-(4-methylphenyl)imidazo[1,2-a]pyrazine-8-carboxamide] | 50 to 500 nM
Cc1ccc(-c2c(-c3ccc(C#N)cc3)nc(N(C)C(=O)N3CC[C@@H](N(C)C)C3)c3nccn23)cc1 [Example 21, (3R)—N-[6-(4-cyanophenyl)-5-(4-methylphenyl)imidazo[1,2-a]pyrazin-8-yl]-3-(dimethylamino)-N-methylpyrrolidine-1-carboxamide] | 50 to 500 nM
Cc1ccc(-c2c(-c3ccc(C#N)cc3)nc(N(C)C(=O)N3CC[C@H](N(C)C)C3)c3nccn23)cc1 [Example 22, (3S)—N-[6-(4-cyanophenyl)-5-(4-methylphenyl)imidazo[1,2-a]pyrazin-8-yl]-3-(dimethylamino)-N-methylpyrrolidine-1-carboxamide] | 500 to 1000 nM
Cc1cc(-c2c(-c3ccc(C#N)cc3)nc(OC[C@@H]3CCCN(C)C3)c3nccn23)ccc1C(C)O (stereo partly drawn) [Example 86, 4-(5-[4-(1-hydroxyethyl)-3-methylphenyl]-8-{[(3R)-1-methylpiperidin-3-yl]methoxy}imidazo[1,2-a]pyrazin-6-yl)benzonitrile] | 50 to 500 nM
CN1CCC[C@@H](COc2nc(-c3ccc(C#N)cc3)c(-c3cnc4c(cnn4C)c3)n3ccnc23)C1 [Example 54, 4-[8-{[(3R)-1-methylpiperidin-3-yl]methoxy}-5-(1-methyl-1H-pyrazolo[3,4-b]pyridin-5-yl)imidazo[1,2-a]pyrazin-6-yl]benzonitrile] | 50 to 500 nM
CN1CC[C@@H](COc2nc(-c3ccc(C#N)cc3)c(-c3ccc(N(C)C)nc3)n3ccnc23)C1 [Example 32, 4-(5-[6-(dimethylamino)pyridin-3-yl]-8-{[(3R)-1-methylpyrrolidin-3-yl]methoxy}imidazo[1,2-a]pyrazin-6-yl)benzonitrile] | 50 to 500 nM
Cc1ccc(-c2cn3c(-c4ccc(C)cc4)c(-c4ccc(C#N)cc4)nc(OC[C@@H]4CCNC4)c3n2)cc1 [Example 35, 4-{2,5-bis(4-methylphenyl)-8-[(3R)-pyrrolidin-3-ylmethoxy]imidazo[1,2-a]pyrazin-6-yl}benzonitrile] | 50 to 500 nM
COC(=O)N(C)c1ccc(-c2c(-c3ccc(C#N)cc3)nc(OC[C@@H]3CCCN(C)C3)c3nccn23)cc1 [Example 77] | 50 to 500 nM
CN1CCC[C@@H](COc2nc(-c3ccc(C#N)cc3)c(-c3ccc4scnc4c3)n3ccnc23)C1 [Example 55, 4-(5-(1,3-benzothiazol-5-yl)-8-{[(3R)-1-methylpiperidin-3-yl]methoxy}imidazo[1,2-a]pyrazin-6-yl)benzonitrile] | 50 to 500 nM
Cc1ccc(-c2c(-c3ccc(C#N)cc3)nc(NCCc3csc(N)n3)c3nccn23)cc1 [Example 23, 4-[8-{[2-(2-amino-1,3-thiazol-4-yl)ethyl]amino}-5-(4-methylphenyl)imidazo[1,2-a]pyrazin-6-yl]benzonitrile] | 50 to 500 nM

Compound | IC50
N#Cc1ccc(-c2nc(OC[C@@H]3CCNC3)c3nccn3c2-c2ccccc2)cc1 [Example 26, 4-{(5-phenyl)-8-[(3R)-pyrrolidin-3-ylmethoxy]imidazo[1,2-a]pyrazin-6-yl}benzonitrile] | 50 to 500 nM
Cc1ccc(-c2c(-c3ccc(C#N)cc3)nc(OC[C@@H]3CCCN(C)C3)c3nccn23)cc1CN1CCN(S(C)(=O)=O)CC1 [Example 71, 4-(5-(4-methyl-3-{[4-(methylsulfonyl)piperazin-1-yl]methyl}phenyl)-8-{[(3R)-1-methylpiperidin-3-yl]methoxy}imidazo[1,2-a]pyrazin-6-yl)benzonitrile] | 50 to 500 nM
Cc1ccc(-c2c(-c3ccc(C#N)cc3)nc(N(C)CCCN(C)C)c3nccn23)cc1 [Example 15, 4-[8-[[3-(dimethylamino)propyl](methyl)amino]-5-(4-methylphenyl)imidazo[1,2-a]pyrazin-6-yl]benzonitrile] | 50 to 500 nM
COc1ncc(-c2c(-c3ccc(C#N)cc3)nc(OC[C@@H]3CCCN(C)C3)c3nccn23)cc1F [Example 84, 4-(5-(5-fluoro-6-methoxypyridin-3-yl)-8-{[(3R)-1-methylpiperidin-3-yl]methoxy}imidazo[1,2-a]pyrazin-6-yl)benzonitrile] | 50 to 500 nM
N#Cc1ccc(-c2nc(OC[C@@H]3CCNC3)c3nccn3c2-c2ccc(C(F)(F)F)cc2)cc1 [Example 28, 4-{8-[(3R)-pyrrolidin-3-ylmethoxy]-5-[4-(trifluoromethyl)phenyl]imidazo[1,2-a]pyrazin-6-yl}benzonitrile] | 50 to 500 nM
Cc1ccc(-c2c(-c3ccc(C#N)cc3)nc(C(=O)NC3CN(C)C3)c3nccn23)cc1 [Example 25, 6-(4-cyanophenyl)-N-(1-methylazetidin-3-yl)-5-(4-methylphenyl)imidazo[1,2-a]pyrazine-8-carboxamide] | 50 to 500 nM
CN1C(=O)CCc2ccc(-c3c(-c4ccc(C#N)cc4)nc(N4CCC(N(C)C)CC4)c4nccn34)cc21 [Example 108, 4-[8-[4-(dimethylamino)piperidin-1-yl]-5-(1-methyl-2-oxo-1,2,3,4-tetrahydroquinolin-7-yl)imidazo[1,2-a]pyrazin-6-yl]benzonitrile] | 50 to 500 nM
CN(C)c1ncc(-c2c(-c3ccc(C#N)cc3)nc(OC[C@@H]3CCNC3)c3nccn23)cn1 [Example 31, 4-{5-[2-(dimethylamino)pyrimidin-5-yl]-8-[(3R)-pyrrolidin-3-ylmethoxy]imidazo[1,2-a]pyrazin-6-yl}benzonitrile] | 50 to 500 nM
Cc1ccc(-c2c(-c3ccc(C#N)cc3)nc(NCCC3CCCN3C)c3nccn23)cc1 (stereo not shown) [Example 16, 4-(5-(4-methylphenyl)-8-{[2-(1-methylpyrrolidin-2-yl)ethyl]amino}imidazo[1,2-a]pyrazin-6-yl)benzonitrile] | 50 to 500 nM
Cc1ccc(-c2c(-c3ccc(C#N)cc3)nc(OC[C@@H]3CCNC3)c3nc(C(F)(F)F)cn23)cc1 [Example 34, 4-[5-(4-methylphenyl)-8-[(3R)-pyrrolidin-3-ylmethoxy]-2-(trifluoromethyl)imidazo[1,2-a]pyrazin-6-yl]benzonitrile] | 50 to 500 nM
COc1cc(-c2c(-c3ccc(C#N)cc3)nc(N3CCC(N(C)C)CC3)c3nccn23)cnc1C [Example 116, 4-[8-[4-(dimethylamino)piperidin-1-yl]-5-(5-methoxy-6-methylpyridin-3-yl)imidazo[1,2-a]pyrazin-6-yl]benzonitrile] | 50 to 500 nM
Cc1ccc(-c2c(-c3ccc(C#N)cc3)nc(CO[C@@H]3CCNC3)c3nccn23)cc1 [Example 3, 4-(5-(4-methylphenyl)-8-{[(3R)-pyrrolidin-3-yloxy]methyl}imidazo[1,2-a]pyrazin-6-yl)benzonitrile] | 50 to 500 nM
CN(C)[C@H]1CCN(c2nc(-c3ccc(C#N)cc3)c(-c3ccc(N4CCCC4=O)nc3)n3ccnc23)C1 [Example 104, 4-{8-[(3S)-3-(dimethylamino)pyrrolidin-1-yl]-5-[6-(2-oxopyrrolidin-1-yl)pyridin-3-yl]imidazo[1,2-a]pyrazin-6-yl}benzonitrile] | 50 to 500 nM
CN1CCC[C@@H](COc2nc(-c3ccc(C#N)cc3)c(-c3ccc(N4CCCC4=O)nc3)n3ccnc23)C1 [Example 48, 4-{8-{[(3R)-1-methylpiperidin-3-yl]methoxy}-5-[6-(2-oxopyrrolidin-1-yl)pyridin-3-yl]imidazo[1,2-a]pyrazin-6-yl}benzonitrile] | 50 to 500 nM
CN1CCC[C@@H](COc2nc(-c3ccc(C#N)cc3)c(-c3ccc(N(C)C)nc3)n3ccnc23)C1 [Example 51, 4-(5-[6-(dimethylamino)pyridin-3-yl]-8-{[(3R)-1-methylpiperidin-3-yl]methoxy}imidazo[1,2-a]pyrazin-6-yl)benzonitrile] | 50 to 500 nM
